Measurements published in ChEMBL document CHEMBL1201862, “PubChem BioAssay data set” (2004).
Active and inactive are the calls of the source.

Columns and labels:
[1] = biological target: Photoreceptor-specific nuclear receptor (Homo sapiens, UniProt Q9Y5X4); format: functional, cell-based;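 note: CHO-S cells with Gal4-NCOR and VP16-NR2E3 two-hybrid luciferase reporter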
[2] = biological target: T1, RNA-binding protein pos-1 (Caenorhabditis elegans, UniProt G5EF15); test: inhibitors of POS-1/mex-3 RNA binding, dose response, biochemical, fluorescence polarization (AID 1964);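 note: purified POS-1 fused to maltose binding protein made in E. coli; potency of compounds blocking POS-1 binding to fluorescent RNA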
T1 sequence (G5EF15 whole entry): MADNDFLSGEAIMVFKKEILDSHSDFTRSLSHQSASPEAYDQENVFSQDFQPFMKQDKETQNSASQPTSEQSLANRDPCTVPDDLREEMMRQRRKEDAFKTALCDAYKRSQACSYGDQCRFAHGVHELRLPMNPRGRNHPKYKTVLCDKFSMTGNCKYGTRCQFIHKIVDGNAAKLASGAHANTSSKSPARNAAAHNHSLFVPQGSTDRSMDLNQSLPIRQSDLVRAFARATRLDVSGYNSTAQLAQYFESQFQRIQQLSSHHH

[3] = biological target: T2, Zinc finger protein mex-5 (Caenorhabditis elegans, UniProt Q9XUB2); test: MEX-5/TCR-2 RNA interaction inhibitors, dose response, biochemical, C. elegans, fluorescence polarization (AID 1960)
T2 sequence (Q9XUB2 whole entry): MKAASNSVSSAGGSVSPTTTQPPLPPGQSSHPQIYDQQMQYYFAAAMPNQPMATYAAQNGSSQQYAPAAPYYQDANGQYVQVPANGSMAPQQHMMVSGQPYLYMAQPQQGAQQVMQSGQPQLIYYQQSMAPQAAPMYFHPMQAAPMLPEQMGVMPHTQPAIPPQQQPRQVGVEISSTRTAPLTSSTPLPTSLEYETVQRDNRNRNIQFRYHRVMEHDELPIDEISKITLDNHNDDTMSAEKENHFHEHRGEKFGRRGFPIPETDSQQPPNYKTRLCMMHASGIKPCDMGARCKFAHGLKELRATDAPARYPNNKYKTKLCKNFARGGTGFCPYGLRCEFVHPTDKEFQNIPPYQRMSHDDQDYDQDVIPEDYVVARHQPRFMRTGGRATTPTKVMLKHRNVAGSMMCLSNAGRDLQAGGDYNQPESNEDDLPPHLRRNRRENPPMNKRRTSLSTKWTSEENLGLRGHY

[4] = biological target: Genome polyprotein (dengue virus type 2, UniProt P29990); test: Dengue-2 NS5 methyltransferase inhibitors, primary screen, biochemical, confirmation dose response (AID 588689); format: functional
Genome polyprotein, sequence (P29990 2492-3391 limits assumed): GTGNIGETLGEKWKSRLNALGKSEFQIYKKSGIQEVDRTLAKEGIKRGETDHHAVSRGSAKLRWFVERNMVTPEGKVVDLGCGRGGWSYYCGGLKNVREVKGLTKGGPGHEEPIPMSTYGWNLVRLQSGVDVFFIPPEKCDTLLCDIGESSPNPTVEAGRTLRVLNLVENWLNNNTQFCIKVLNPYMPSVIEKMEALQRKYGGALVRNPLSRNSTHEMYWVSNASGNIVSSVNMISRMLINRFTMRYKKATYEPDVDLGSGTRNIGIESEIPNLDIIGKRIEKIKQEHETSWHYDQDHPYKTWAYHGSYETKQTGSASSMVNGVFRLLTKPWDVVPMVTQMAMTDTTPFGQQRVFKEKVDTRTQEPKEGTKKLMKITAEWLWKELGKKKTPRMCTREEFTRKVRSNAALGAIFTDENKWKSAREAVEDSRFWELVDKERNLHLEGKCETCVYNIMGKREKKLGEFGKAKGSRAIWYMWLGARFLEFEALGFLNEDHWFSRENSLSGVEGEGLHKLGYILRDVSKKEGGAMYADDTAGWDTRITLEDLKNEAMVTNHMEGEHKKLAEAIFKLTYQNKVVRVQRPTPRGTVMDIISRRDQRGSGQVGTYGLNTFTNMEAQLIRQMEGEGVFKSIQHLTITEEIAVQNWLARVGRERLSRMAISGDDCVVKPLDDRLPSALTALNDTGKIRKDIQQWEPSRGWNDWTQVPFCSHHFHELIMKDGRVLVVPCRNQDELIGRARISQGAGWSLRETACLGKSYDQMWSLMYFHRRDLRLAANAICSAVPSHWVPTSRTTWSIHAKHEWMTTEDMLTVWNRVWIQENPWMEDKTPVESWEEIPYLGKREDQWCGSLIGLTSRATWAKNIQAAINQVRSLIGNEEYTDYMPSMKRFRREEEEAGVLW

[5] = biological target: Tyrosine-protein phosphatase non-receptor type 11 (Homo sapiens, UniProt Q06124); test: SHP2 phosphatase inhibition, dose response, selectivity assay for STEP inhibitor project, biochemical (AID 602367); format: functional; conditions: read-out: IC50_Mean
[6] = biological target: Tyrosine-protein phosphatase non-receptor type 5 (Homo sapiens, UniProt P54829); test: STEP phosphatase inhibitors, confirmation, biochemical, fluorescence intensity, uHTS hits (AID 602372); format: functional; conditions: read-out: IC50_Mean
[7] = biological target: Dual specificity protein phosphatase 3 (Homo sapiens, UniProt P51452); test: VHR phosphatase inhibition, dose response, selectivity assay for STEP inhibitor project, biochemical (AID 602374); format: functional; conditions: read-out: IC50_Mean
[8] = biological target: T3, Long-chain-fatty-acid--AMP ligase FadD28 (Mycobacterium tuberculosis, UniProt P9WQ59); test: Fluorescence polarization aasay to screen for inhibitors that compete for the binding of FadD28 to a bisubstrate Measured in Biochemical System Using Plate Reader - 2147-01_Inhibitor_Dose_CherryPick_Activity.; format: functional, Mycobacterium tuberculosis H37Rv
T3 sequence (P9WQ59 whole entry): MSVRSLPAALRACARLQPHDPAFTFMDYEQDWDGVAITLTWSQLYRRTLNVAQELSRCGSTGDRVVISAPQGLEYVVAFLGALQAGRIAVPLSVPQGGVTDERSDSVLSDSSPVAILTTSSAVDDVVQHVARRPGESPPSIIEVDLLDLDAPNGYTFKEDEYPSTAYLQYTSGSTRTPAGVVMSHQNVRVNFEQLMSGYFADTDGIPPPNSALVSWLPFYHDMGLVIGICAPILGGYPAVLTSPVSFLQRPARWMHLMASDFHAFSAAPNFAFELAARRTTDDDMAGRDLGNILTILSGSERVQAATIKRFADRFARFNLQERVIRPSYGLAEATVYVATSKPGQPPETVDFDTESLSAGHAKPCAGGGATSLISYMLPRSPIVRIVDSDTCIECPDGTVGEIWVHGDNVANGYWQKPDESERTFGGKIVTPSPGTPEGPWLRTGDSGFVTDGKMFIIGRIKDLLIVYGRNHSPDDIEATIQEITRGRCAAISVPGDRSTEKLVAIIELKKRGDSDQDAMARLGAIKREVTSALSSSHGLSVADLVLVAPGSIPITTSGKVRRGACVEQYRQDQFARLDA

[9] = biological target: T4, Insulin-degrading enzyme (Homo sapiens, UniProt P14735); test: activators of recombinant IDE enzyme, dose response, counter-screen for IDE activator project, biochemical, fluorescence polarization (AID 588681)
T4 sequence (P14735 whole entry): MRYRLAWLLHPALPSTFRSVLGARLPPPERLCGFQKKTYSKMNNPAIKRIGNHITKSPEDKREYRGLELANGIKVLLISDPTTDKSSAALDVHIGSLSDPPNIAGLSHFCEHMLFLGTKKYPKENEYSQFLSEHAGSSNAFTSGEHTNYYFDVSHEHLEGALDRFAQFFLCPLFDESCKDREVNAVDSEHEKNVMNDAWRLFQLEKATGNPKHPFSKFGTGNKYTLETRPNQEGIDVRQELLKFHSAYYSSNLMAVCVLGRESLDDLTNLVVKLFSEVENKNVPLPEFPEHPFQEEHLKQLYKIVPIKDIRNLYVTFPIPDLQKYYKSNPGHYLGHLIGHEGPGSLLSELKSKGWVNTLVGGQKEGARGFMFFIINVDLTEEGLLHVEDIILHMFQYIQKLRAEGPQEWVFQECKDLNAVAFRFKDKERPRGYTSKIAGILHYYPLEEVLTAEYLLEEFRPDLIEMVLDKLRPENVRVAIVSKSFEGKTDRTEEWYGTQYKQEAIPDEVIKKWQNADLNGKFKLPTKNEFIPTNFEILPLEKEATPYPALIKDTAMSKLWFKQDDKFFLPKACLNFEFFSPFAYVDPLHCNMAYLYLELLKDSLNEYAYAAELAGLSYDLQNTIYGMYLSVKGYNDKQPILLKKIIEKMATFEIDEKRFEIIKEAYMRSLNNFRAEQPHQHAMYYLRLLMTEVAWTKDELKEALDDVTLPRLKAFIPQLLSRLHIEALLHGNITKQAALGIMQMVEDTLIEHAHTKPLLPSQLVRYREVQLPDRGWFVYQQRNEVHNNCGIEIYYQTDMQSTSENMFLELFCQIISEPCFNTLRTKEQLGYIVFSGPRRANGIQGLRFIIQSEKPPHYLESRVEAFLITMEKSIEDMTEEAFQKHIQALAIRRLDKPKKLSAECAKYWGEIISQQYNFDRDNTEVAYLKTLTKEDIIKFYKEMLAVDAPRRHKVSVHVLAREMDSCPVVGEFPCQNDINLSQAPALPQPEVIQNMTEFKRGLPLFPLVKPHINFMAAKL

[10] = biological target: T4, Insulin-degrading enzyme; test: activators of endogenous IDE in HEK cells, dose response, cell-based, fluorescence polarization (AID 588439); format: functional
[11] = tested on: HEK293; test: HEK cell cytotoxicity by LDH release, dose response, cytotoxicity control for IDE activator project, fluorescence, HEK cells (AID 588440); format: functional, cell-based; conditions: Homo sapiens;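 note: cytotoxicity by LDH release measuring loss of membrane integrity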
[12] = tested on: HEK293; test: optical interference in Abeta FP readout, dose response, artefact control for IDE activator project, biochemical, fluorescence polarization (AID 588442); format: functional, cell-based; conditions: Homo sapiens
[13] = biological target: T5, Corticotropin-releasing factor receptor 2/Corticotropin-releasing factor-binding protein (Homo sapiens, UniProt P24387+Q13324); test: Dose Response confirmation of uHTS hits for small molecule antagonists of the CRF-binding protein and CRF-R2 receptor complex.; format: functional; conditions: read-out: IC50_Mean
T5 sequence (Q13324 whole entry): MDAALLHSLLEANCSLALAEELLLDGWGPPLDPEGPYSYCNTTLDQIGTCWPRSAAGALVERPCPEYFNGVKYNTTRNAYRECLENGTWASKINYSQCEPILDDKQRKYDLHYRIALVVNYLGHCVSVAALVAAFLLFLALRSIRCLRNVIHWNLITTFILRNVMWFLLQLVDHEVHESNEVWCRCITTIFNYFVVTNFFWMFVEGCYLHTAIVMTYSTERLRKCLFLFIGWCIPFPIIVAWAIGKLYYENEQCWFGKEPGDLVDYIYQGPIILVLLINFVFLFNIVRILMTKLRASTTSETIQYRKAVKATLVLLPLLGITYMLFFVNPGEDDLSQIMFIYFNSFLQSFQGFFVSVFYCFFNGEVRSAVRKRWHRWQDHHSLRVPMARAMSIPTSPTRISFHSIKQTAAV
T5 sequence (P24387 whole entry): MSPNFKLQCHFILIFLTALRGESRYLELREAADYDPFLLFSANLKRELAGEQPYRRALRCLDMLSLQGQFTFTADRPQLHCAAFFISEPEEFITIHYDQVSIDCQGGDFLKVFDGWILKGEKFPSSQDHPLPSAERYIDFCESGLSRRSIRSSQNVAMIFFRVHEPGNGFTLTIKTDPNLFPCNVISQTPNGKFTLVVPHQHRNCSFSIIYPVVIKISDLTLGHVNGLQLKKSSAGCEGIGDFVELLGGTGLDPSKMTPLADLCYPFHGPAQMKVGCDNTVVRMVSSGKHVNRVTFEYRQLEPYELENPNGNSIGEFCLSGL

[14] = biological target: T5, Corticotropin-releasing factor receptor 2/Corticotropin-releasing factor-binding protein; test: activators of CRF receptor 2 with binding protein – uHTS hits, confirmation (AID 602473); format: functional; conditions: read-out: EC50_Mean
[15] = CRF-BP/CRF-R2 complex antagonists, dose response, cell-based, uHTS hits, 384-well (AID 651639); format: functional, Homo sapiens; conditions: read-out: IC50_Mean
[16] = biological target: Protein kinase C zeta type (Homo sapiens, UniProt Q05513); format: functional;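 note: measured as one member of a broad kinase profiling panel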
[17] = biological target: Serine/threonine-protein kinase PLK3 (Homo sapiens, UniProt Q9H4B4); format: functional
Serine/threonine-protein kinase PLK3, sequence (Q9H4B4 whole entry): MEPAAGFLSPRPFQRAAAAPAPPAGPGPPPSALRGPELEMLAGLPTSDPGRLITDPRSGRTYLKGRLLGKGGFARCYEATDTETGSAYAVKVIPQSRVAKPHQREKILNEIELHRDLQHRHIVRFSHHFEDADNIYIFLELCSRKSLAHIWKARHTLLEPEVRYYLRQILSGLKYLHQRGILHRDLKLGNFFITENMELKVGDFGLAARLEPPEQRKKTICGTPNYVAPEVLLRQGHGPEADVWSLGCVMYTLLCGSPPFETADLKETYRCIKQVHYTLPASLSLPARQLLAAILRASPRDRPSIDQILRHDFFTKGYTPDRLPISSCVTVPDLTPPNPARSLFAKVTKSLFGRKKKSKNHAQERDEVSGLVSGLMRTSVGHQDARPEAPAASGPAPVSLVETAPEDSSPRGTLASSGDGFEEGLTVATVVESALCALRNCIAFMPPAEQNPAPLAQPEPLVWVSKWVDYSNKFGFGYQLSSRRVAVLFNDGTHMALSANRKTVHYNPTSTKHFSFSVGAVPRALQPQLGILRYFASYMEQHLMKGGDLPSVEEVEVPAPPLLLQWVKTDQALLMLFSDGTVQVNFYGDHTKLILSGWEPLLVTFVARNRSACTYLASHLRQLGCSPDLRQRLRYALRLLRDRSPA

[18] = biological target: RAC-gamma serine/threonine-protein kinase (Homo sapiens, UniProt Q9Y243); format: functional
[19] = biological target: 5'-AMP-activated protein kinase catalytic subunit alpha-1 (Homo sapiens, UniProt Q13131); format: functional
5'-AMP-activated protein kinase catalytic subunit alpha-1, sequence (Q13131 whole entry): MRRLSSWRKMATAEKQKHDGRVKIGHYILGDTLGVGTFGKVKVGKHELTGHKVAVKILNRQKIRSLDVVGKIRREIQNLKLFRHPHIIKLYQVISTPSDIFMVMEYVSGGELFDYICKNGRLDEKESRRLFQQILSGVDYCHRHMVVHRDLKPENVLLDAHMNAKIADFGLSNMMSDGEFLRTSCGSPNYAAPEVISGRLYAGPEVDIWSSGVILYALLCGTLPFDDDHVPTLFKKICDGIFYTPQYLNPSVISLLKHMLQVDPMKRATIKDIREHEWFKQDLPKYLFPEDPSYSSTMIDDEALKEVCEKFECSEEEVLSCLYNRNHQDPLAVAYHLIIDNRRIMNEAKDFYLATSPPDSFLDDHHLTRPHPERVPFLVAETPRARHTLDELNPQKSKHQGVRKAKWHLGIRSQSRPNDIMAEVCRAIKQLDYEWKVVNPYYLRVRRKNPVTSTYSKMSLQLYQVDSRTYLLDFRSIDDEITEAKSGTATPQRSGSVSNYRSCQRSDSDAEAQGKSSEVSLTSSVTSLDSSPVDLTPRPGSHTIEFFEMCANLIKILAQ

[20] = biological target: Protein kinase C delta type (Homo sapiens, UniProt Q05655); format: functional
[21] = biological target: Serine/threonine-protein kinase Chk2 (Homo sapiens, UniProt O96017); format: functional;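 note: CHEK2 entry within a kinome-wide screening panel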
[22] = biological target: Cyclin-dependent kinase 2 (Homo sapiens, UniProt P24941); format: functional;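 note: CDK2 measured as one member of a broad kinome profiling panel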
[23] = biological target: Serine/threonine-protein kinase pim-1 (Homo sapiens, UniProt P11309); format: functional
[24] = biological target: MAP kinase-activated protein kinase 2 (Homo sapiens, UniProt P49137); format: functional;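 note: measured as one member of a kinome-wide kinase panel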
[25] = biological target: Casein kinase II subunit alpha (Homo sapiens, UniProt P68400); format: functional
[26] = biological target: Protein kinase C gamma type (Homo sapiens, UniProt P05129); format: functional
[27] = biological target: Serine/threonine-protein kinase Chk1 (Homo sapiens, UniProt O14757); format: functional;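 note: measured as one member of a kinome-wide kinase profiling panel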
[28] = biological target: Ephrin type-A receptor 2 (Homo sapiens, UniProt P29317); format: functional;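 note: EPHA2 tested as one member of a kinome-wide kinase panel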
[29] = biological target: RAC-alpha serine/threonine-protein kinase (Homo sapiens, UniProt P31749); format: functional;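 note: AKT1 affinity measured as one member of a kinome-wide kinase profiling panel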
RAC-alpha serine/threonine-protein kinase, sequence (P31749 whole entry): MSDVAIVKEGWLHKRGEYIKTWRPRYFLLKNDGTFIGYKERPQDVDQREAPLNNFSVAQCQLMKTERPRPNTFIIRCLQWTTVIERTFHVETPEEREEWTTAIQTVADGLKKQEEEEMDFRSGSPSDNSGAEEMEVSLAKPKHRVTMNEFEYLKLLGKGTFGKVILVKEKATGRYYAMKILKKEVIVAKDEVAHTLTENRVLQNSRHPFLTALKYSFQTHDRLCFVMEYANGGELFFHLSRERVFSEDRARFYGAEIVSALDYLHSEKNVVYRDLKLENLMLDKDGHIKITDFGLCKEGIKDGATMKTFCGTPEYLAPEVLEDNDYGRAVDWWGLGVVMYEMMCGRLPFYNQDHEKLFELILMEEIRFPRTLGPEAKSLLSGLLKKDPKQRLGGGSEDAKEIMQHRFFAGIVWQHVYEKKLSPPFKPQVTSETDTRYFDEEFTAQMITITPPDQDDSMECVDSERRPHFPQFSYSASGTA

[30] = biological target: Cyclin-dependent kinase 1 (Homo sapiens, UniProt P06493); format: functional;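 note: Kinome-wide panel profiling, with the target listed as panel member CDC2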
[31] = biological target: Serine/threonine-protein kinase PLK1 (Homo sapiens, UniProt P53350); format: functional;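 note: PLK1 measured as one member of a kinome-wide profiling panel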
[32] = biological target: Serine/threonine-protein kinase MRCK alpha (Homo sapiens, UniProt Q5VT25); format: functional
[33] = biological target: T6, ATP-dependent translocase ABCB1 (Homo sapiens, UniProt P08183); test: ABCG2 efflux pump inhibitor potency, dose response, Ig-MXP3 cells, JC-1, flow cytometry, set 2 (AID 504566); format: functional; conditions: read-out: EC50_MICROM_;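 note: flow cytometry median green fluorescence of retained JC-1 dye; potency of efflux pump inhibition measured as rising substrate retention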
T6 sequence (P08183 whole entry): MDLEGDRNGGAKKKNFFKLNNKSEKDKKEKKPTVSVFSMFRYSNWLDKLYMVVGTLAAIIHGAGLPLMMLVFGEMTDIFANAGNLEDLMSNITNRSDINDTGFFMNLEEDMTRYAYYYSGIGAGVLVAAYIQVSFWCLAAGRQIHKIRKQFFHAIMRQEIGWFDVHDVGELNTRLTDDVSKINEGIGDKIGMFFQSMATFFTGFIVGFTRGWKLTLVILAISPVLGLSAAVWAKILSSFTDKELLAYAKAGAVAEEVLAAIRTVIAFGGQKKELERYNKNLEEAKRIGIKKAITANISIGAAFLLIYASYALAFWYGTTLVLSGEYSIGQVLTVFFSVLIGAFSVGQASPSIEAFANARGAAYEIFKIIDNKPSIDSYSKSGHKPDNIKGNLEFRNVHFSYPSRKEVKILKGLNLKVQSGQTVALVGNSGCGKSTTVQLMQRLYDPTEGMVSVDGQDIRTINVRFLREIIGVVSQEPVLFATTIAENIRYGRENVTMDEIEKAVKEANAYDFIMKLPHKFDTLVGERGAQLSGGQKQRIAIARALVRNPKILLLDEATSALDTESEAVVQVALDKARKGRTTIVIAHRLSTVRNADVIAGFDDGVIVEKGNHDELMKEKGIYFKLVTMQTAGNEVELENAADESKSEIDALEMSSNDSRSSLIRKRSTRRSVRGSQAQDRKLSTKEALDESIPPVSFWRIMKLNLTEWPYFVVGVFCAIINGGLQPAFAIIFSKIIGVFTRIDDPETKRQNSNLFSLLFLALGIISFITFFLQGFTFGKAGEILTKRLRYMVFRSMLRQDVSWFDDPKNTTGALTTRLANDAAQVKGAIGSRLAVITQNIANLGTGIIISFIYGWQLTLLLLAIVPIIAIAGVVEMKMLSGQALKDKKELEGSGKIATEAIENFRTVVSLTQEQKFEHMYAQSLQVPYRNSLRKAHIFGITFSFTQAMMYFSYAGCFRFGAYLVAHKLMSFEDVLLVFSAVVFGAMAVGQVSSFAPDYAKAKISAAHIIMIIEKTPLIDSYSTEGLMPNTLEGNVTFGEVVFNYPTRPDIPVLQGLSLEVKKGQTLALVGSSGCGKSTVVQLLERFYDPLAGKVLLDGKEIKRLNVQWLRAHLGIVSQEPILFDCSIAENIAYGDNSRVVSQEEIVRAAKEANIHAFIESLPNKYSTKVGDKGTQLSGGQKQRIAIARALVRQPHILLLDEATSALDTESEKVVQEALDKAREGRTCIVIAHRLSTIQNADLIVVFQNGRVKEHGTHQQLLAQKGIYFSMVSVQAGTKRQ

[34] = biological target: T6, ATP-dependent translocase ABCB1; test: ABCB1 efflux inhibitor potency, dose response, Jurkat-DNR cells, JC-1, flow cytometry, set 2 (AID 504569); format: functional; conditions: read-out: EC50_MICROM_;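 note: potency of pump inhibitors that raise cellular JC-1 green fluorescence up to the nicardipine level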

Photoreceptor-specific nuclear receptor, sequence (Q9Y5X4 whole entry, the tested form may be a part): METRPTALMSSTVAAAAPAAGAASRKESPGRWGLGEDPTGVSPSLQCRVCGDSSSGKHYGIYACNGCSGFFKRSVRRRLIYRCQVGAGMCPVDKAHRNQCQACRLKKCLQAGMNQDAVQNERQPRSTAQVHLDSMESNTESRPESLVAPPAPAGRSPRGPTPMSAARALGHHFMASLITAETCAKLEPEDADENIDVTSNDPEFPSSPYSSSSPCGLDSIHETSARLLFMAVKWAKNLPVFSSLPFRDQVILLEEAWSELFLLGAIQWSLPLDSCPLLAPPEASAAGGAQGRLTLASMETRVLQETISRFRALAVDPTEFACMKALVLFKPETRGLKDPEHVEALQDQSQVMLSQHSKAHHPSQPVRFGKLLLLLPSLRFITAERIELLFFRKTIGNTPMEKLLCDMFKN

Oc1cc(C(F)(F)F)nc(SC/C=C/c2ccccc2)n1
inactive: IC50 [1] 12.7 µM

COc1cc(/C=C2/C(=O)NN(c3cccc(C)c3)C2=O)cc([N+](=O)[O-])c1O
active: EC50 [3] 89.1 µM | IC50 [4] 51.5 µM | IC50 [5] 5.63 µM | IC50 [7] 4.11 µM | AC50 [8] 39.2 µM
inactive: IC50 [6] 25.5 µM
> 300 µM (not active): EC50 [2]

c1ccc(C2CC3CC4(CCCC4)N2O3)cc1 (stereo not drawn)
inactive: EC50 [9] > 54.7 µM | EC50 [10] > 54.7 µM | IC50 [11] > 89.2 µM | EC50 [12] > 55.9 µM

CN(C)CCCN(C(=O)COc1ccc(Cl)cc1)c1nc2ccc(F)cc2s1
inactive: EC50 [9] > 54.7 µM | EC50 [10] > 54.7 µM | IC50 [11] > 29.7 µM | EC50 [12] > 55.9 µM

N#Cc1c(C(F)(F)F)cc(-c2ccc(Cl)cc2)nc1O
inactive: EC50 [14] > 53 µM | IC50 [15] > 20 µM
active: IC50 [13] 4.16 µM

Cn1ncc2c1CCCC2=O
inactive: Ki [16] > 20 µM | Ki [18] > 25.1 µM | Ki [19] > 25.1 µM | Ki [20] > 20 µM | Ki [21] > 25.1 µM | Ki [22] > 20 µM | Ki [23] > 25.1 µM | Ki [24] > 20 µM | Ki [26] > 20 µM | Ki [27] > 20 µM | Ki [28] > 20 µM | Ki [29] > 20 µM | Ki [30] > 20 µM | Ki [32] > 25.1 µM
active: Ki [17] 2 µM | Ki [25] 15.8 µM | Ki [31] 10 µM

COc1ccc(-c2cc3nc(-c4ccccc4)cc(N4CCN(C(=O)c5ccco5)CC4)n3n2)cc1
active: EC50 [33] 1.28 µM | EC50 [34] 3.35 µM
